Measurements from article PMC11996864, “A small-molecule inhibitor of BCL10-MALT1 interaction abrogates progression of diffuse large B cell lymphoma” (The Journal of Clinical Investigation, 2025).
Values joined by “and” are separate entries in the source; they are usually repeats but may differ in a detail not shown here. Equal entries are not always repeated. Where two headings read alike, the source gives them in different places.

Tests used:
[1] = In vivo pharmacokinetics, plasma LC-MS/MS
Procedure: Pharmacokinetic and cytochrome P450 inhibition studies. Studies were performed with the assistance of Touchstone Biosciences (Plymouth Meeting, Pennsylvania). For pharmacokinetic bioanalysis, male CD-1 mice were fasted overnight before being dosed with M1i-124 via oral gavage (20mg/kg), intraperitoneal injection in the lower right quadrant of the abdomen (20 mg/kg), or intravenous tail vein injection (5 mg/kg). All blood samples were taken via tail vein at 5, 15, and 30 minutes, and 1, 2, 4, 6, 8, and 24 hours after compound administration. The plasma concentration of the compound was determined using LC-MS/MS analysis. […]

[2] = system: BCL10 and MALT1 mRNA in TMD8 cells; assay: BCL10 and MALT1 mRNA expression, qRT-PCR; assay type: cell-based, human
Procedure: Transfection. HEK293T or HepG2 BCL10-/- cells (used only in Supplemental Figure 1 where indicated) were transiently transfected at approximately 80% confluence using Lipofectamine 3000 (ThermoFisher, Cat# L3000015) per manufacture instructions. Cells were lysed in buffer (150 mM NaCl, 2 mM EDTA, 10% glycerol, 1% Nonidet P-40, 20 mM Tris Hcl, pH 7.4) containing protease and phosphatase inhibitors (Thermo Scientific, Cat#78446) at 24 hours for HEK293T cells or 48 hours for HepG2 BCL10-/- cells.
Immunoprecipitation. Cells were rinsed in PBS and lysed in buffer (150 mM NaCl, 2 mM EDTA, 10% glycerol, 1% Nonidet P-40, 20 mM Tris HCl, pH 7.4) containing protease and phosphatase inhibitors (Thermo Scientific, Cat#78446). Supernatants were incubated with anti-Myc tag agarose beads (Takara, Cat# 631208) or anti-HA tag matrix (Roche, Cat# 11815016001) overnight at 4°C with gentle rotation. Beads were then pelleted at 1000 rpm for 2 min and washed 3-4 times with buffer. Antibody-protein conjugates were removed from beads by boiling for ~5-8 minutes in 2x Laemmli sample buffer (Bio-Rad Laboratories, Cat# 161073) containing 2-mercaptoethanol, and samples were then subjected to SDS-PAGE and immunoblotting.
Antibodies for western blots. The HRP-conjugated anti-HA (clone 3F10, Cat# 12013819001) and anti-HA (clone 3F10, Cat# 11867423001) antibodies were purchased from Sigma. The anti-phospho-IKKα(Ser176)/ IKKβ(Ser177) (clone C84E11, Cat# 2078), rabbit anti-GAPDH (clone […]
were purchased from Cell Signaling Technology. The mouse anti-GAPDH (clone 6C5, Cat# sc- […]
anti-IKKα/β (clone H-470, Cat# sc-7607) antibodies were purchased from Santa Cruz. The anti-N4BP1 antibody (Cat# CPA2415) was purchased from Cohesion Biosciences. The anti-mouse (Cat# W4021) and anti-rabbit (Cat# W4011) HRP-conjugated secondaries were purchased from Promega. The anti-Rat HRP-conjugated secondary was purchased from Cell Signaling […]
qRT-PCR. Jurkat T cells grown in serum free media for 4 hours with indicated inhibitors prior to stimulation with PMA/Ionomycin for 4 hours. […]

Structure (SMILES): O=S(=O)(NCc1ccc2c(c1)OCO2)c1ccc(Cc2ccc(S(=O)(=O)NCc3ccc4c(c3)OCO4)cc2)cc1 [M1i-124]
- Plasma concentration (IP) ([1]; IP, 0.083 hours): 658 ng/mL and 561 ng/mL
- Plasma concentration (IP) ([1]; IP, 0.25 hours): 720 ng/mL and 607 ng/mL
- Plasma concentration (IP) ([1]; IP, 0.5 hours): 775 ng/mL and 671 ng/mL
- Plasma concentration (IP) ([1]; IP, 1 hours): 437 ng/mL and 307 ng/mL
- Plasma concentration (IP) ([1]; IP, 2 hours): 242 ng/mL and 173 ng/mL
- Plasma concentration (IP) ([1]; IP, 4 hours): 110 ng/mL and 86.5 ng/mL
- Plasma concentration (IP) ([1]; IP, 6 hours): 59.4 ng/mL
- Plasma concentration (IP) ([1]; IP, 8 hours): 38.1 ng/mL and 35.4 ng/mL
- Plasma concentration (IP) ([1]; IP, 24 hours): 7.87 ng/mL
- Plasma concentration (IV) ([1]; IV, 0.083 hours): 2080 ng/mL and 1440 ng/mL
- Plasma concentration (IV) ([1]; IV, 0.25 hours): 1320 ng/mL and 1020 ng/mL
- Plasma concentration (IV) ([1]; IV, 0.5 hours): 302 ng/mL
- Plasma concentration (IV) ([1]; IV, 1 hours): 115 ng/mL and 152 ng/mL
- Plasma concentration (IV) ([1]; IV, 2 hours): 30.6 ng/mL and 29 ng/mL
- Plasma concentration (IV) ([1]; IV, 4 hours): 16.3 ng/mL
- Plasma concentration (IV) ([1]; IV, 6 hours): 12.7 ng/mL and 16.3 ng/mL
- Plasma concentration (IV) ([1]; IV, 8 hours): 12.6 ng/mL
- Plasma concentration (IV) ([1]; IV, 24 hours): 2.97 ng/mL and 3.88 ng/mL
- Plasma concentration (PO) ([1]; PO, 0.083 hours): 306 ng/mL and 267 ng/mL
- Plasma concentration (PO) ([1]; PO, 0.25 hours): 56.5 ng/mL and 86.1 ng/mL
- Plasma concentration (PO) ([1]; PO, 0.5 hours): 57.2 ng/mL
- Plasma concentration (PO) ([1]; PO, 1 hours): 25.9 ng/mL and 21.8 ng/mL
- Plasma concentration (PO) ([1]; PO, 2 hours): 14.7 ng/mL and 15.7 ng/mL
- Plasma concentration (PO) ([1]; PO, 4 hours): 13.1 ng/mL
- Plasma concentration (PO) ([1]; PO, 6 hours): 9.73 ng/mL and 11.5 ng/mL
- Plasma concentration (PO) ([1]; PO, 8 hours): 8.44 ng/mL and 9.62 ng/mL
- Plasma concentration (PO) ([1]; PO, 24 hours): 2.39 ng/mL and 2.74 ng/mL
- concentration at 6 h ([1]; male, CD-1, mouse, in vivo, ip, 20 mg/kg, IP, 6 hours, read-out: Plasma concentration (IP)): 54.8 ng/mL
- concentration at 24 h ([1]; male, CD-1, mouse, in vivo, ip, 20 mg/kg, IP, 24 hours, read-out: Plasma concentration (IP)): 7.17 ng/mL
- concentration at 0.5 h ([1]; male, CD-1, mouse, in vivo, iv, 5 mg/kg, IV, 0.5 hours, read-out: Plasma concentration (IV)): 412 ng/mL
- concentration at 4 h ([1]; male, CD-1, mouse, in vivo, iv, 5 mg/kg, IV, 4 hours, read-out: Plasma concentration (IV)): 20.4 ng/mL
- concentration at 8 h ([1]; male, CD-1, mouse, in vivo, iv, 5 mg/kg, IV, 8 hours, read-out: Plasma concentration (IV)): 10.9 ng/mL
- concentration at 0.5 h ([1]; male, CD-1, mouse, in vivo, po, 20 mg/kg, PO, 0.5 hours, read-out: Plasma concentration (PO)): 42.6 ng/mL
- concentration at 4 h ([1]; male, CD-1, mouse, in vivo, po, 20 mg/kg, PO, 4 hours, read-out: Plasma concentration (PO)): 15.4 ng/mL
- concentration at 0.083 h ([1]; male, CD-1, mouse, plasma, ip, 20 mg/kg, IP, 0.083 hours, read-out: Plasma concentration (IP)): 451 ng/mL
- concentration at 0.25 h ([1]; male, CD-1, mouse, plasma, ip, 20 mg/kg, IP, 0.25 hours, read-out: Plasma concentration (IP)): 509 ng/mL
- concentration at 0.5 h ([1]; male, CD-1, mouse, plasma, ip, 20 mg/kg, IP, 0.5 hours, read-out: Plasma concentration (IP)): 596 ng/mL
- concentration at 1 h ([1]; male, CD-1, mouse, plasma, ip, 20 mg/kg, IP, 1 hours, read-out: Plasma concentration (IP)): 349 ng/mL
- concentration at 2 h ([1]; male, CD-1, mouse, plasma, ip, 20 mg/kg, IP, 2 hours, read-out: Plasma concentration (IP)): 259 ng/mL
- concentration at 4 h ([1]; male, CD-1, mouse, plasma, ip, 20 mg/kg, IP, 4 hours, read-out: Plasma concentration (IP)): 126 ng/mL
- concentration at 6 h ([1]; male, CD-1, mouse, plasma, ip, 20 mg/kg, IP, 6 hours, read-out: Plasma concentration (IP)): 75.3 ng/mL
- concentration at 8 h ([1]; male, CD-1, mouse, plasma, ip, 20 mg/kg, IP, 8 hours, read-out: Plasma concentration (IP)): 53.2 ng/mL
- concentration at 24 h ([1]; male, CD-1, mouse, plasma, ip, 20 mg/kg, IP, 24 hours, read-out: Plasma concentration (IP)): 9.14 ng/mL
- Cmax ([1]; male, CD-1, mouse, plasma, ip, mice, 20 mg/kg i.p., read-out: mean peak plasma concentration (Cmax)): 681 ng/mL
- half-life ([1]; male, CD-1, mouse, plasma, ip, mice, 20 mg/kg i.p., read-out: t1/2 (converted)): 6.33 h
- concentration at 0.083 h ([1]; male, CD-1, mouse, plasma, iv, 5 mg/kg, IV, 0.083 hours, read-out: Plasma concentration (IV)): 2070 ng/mL
- concentration at 0.25 h ([1]; male, CD-1, mouse, plasma, iv, 5 mg/kg, IV, 0.25 hours, read-out: Plasma concentration (IV)): 1200 ng/mL
- concentration at 0.5 h ([1]; male, CD-1, mouse, plasma, iv, 5 mg/kg, IV, 0.5 hours, read-out: Plasma concentration (IV)): 361 ng/mL
- concentration at 1 h ([1]; male, CD-1, mouse, plasma, iv, 5 mg/kg, IV, 1 hours, read-out: Plasma concentration (IV)): 122 ng/mL
- concentration at 2 h ([1]; male, CD-1, mouse, plasma, iv, 5 mg/kg, IV, 2 hours, read-out: Plasma concentration (IV)): 24.3 ng/mL
- concentration at 4 h ([1]; male, CD-1, mouse, plasma, iv, 5 mg/kg, IV, 4 hours, read-out: Plasma concentration (IV)): 13.4 ng/mL
- concentration at 6 h ([1]; male, CD-1, mouse, plasma, iv, 5 mg/kg, IV, 6 hours, read-out: Plasma concentration (IV)): 11.6 ng/mL
- concentration at 8 h ([1]; male, CD-1, mouse, plasma, iv, 5 mg/kg, IV, 8 hours, read-out: Plasma concentration (IV)): 8.84 ng/mL
- concentration at 24 h ([1]; male, CD-1, mouse, plasma, iv, 5 mg/kg, IV, 24 hours, read-out: Plasma concentration (IV)): 2.62 ng/mL
- C0 ([1]; male, CD-1, mouse, plasma, iv, mice, 5 mg/kg i.v., read-out: mean initial plasma concentration): 1860 ng/mL
- Vd ([1]; male, CD-1, mouse, plasma, iv, mice, 5 mg/kg i.v., read-out: steady-state volume of distribution (Vss)): 15.4 L/kg
- clearance ([1]; male, CD-1, mouse, plasma, iv, mice, 5 mg/kg i.v., read-out: systemic clearance): 77.9 mL/min/kg
- half-life ([1]; male, CD-1, mouse, plasma, iv, mice, 5 mg/kg i.v., read-out: terminal half-life (t1/2) (converted)): 8.72 h
- concentration at 0.083 h ([1]; male, CD-1, mouse, plasma, po, 20 mg/kg, PO, 0.083 hours, read-out: Plasma concentration (PO)): 310 ng/mL
- concentration at 0.25 h ([1]; male, CD-1, mouse, plasma, po, 20 mg/kg, PO, 0.25 hours, read-out: Plasma concentration (PO)): 78.2 ng/mL
- concentration at 0.5 h ([1]; male, CD-1, mouse, plasma, po, 20 mg/kg, PO, 0.5 hours, read-out: Plasma concentration (PO)): 35.8 ng/mL
- concentration at 1 h ([1]; male, CD-1, mouse, plasma, po, 20 mg/kg, PO, 1 hours, read-out: Plasma concentration (PO)): 22.5 ng/mL
- concentration at 2 h ([1]; male, CD-1, mouse, plasma, po, 20 mg/kg, PO, 2 hours, read-out: Plasma concentration (PO)): 17.7 ng/mL
- concentration at 4 h ([1]; male, CD-1, mouse, plasma, po, 20 mg/kg, PO, 4 hours, read-out: Plasma concentration (PO)): 11.5 ng/mL
- concentration at 6 h ([1]; male, CD-1, mouse, plasma, po, 20 mg/kg, PO, 6 hours, read-out: Plasma concentration (PO)): 13.1 ng/mL
- concentration at 8 h ([1]; male, CD-1, mouse, plasma, po, 20 mg/kg, PO, 8 hours, read-out: Plasma concentration (PO)): 11.7 ng/mL
- concentration at 24 h ([1]; male, CD-1, mouse, plasma, po, 20 mg/kg, PO, 24 hours, read-out: Plasma concentration (PO)): 3.18 ng/mL
- half-life ([1]; male, CD-1, mouse, plasma, po, mice, 20 mg/kg p.o., read-out: t1/2 (converted)): 8.76 h
- Cmax ([1]; male, CD-1, mouse, plasma, mice, 20 mg/kg oral, read-out: Cmax): 294 ng/mL
- adverse clinical signs during PK studies ([1]; mice, 24 hours, result in words): No adverse clinical signs were observed
- BCL10 mRNA (normalized) ([2]; TMD8, 1 μM, 24 hrs): 1.022 and 1.024 and 1.305
- MALT1 mRNA (normalized) ([2]; TMD8, 1 μM, 24 hrs): 0.842 and 0.979 and 1.096
- BCL10 and MALT1 mRNA levels ([2]; TMD8, result in words): modest time-dependent upregulation
